Laboratory results: US20200010457A1, “TETRAHYDROPYRAN AND TETRAHYDROTHIOPYRAN AMIDE DERIVATIVES HAVING MULTIMODAL ACTIVITY AGAINST PAIN” (ESTEVE PHARMACEUTICALS, S.A., priority 2016, published 2020)

tested on: human σ1 receptor and human μ-opioid receptor; test: Human σ1 receptor ([3H](+)-pentazocine) and human μ-opioid receptor ([3H]-DAMGO) radioligand assays, reported as one combined score; type: binding; parameters: key to σ1 and μ binding: +: Both Ki-μ and Ki-σ1>=1000 nM; ++: One Ki<1000 nM while the other Ki is >=1000 nM; +++: Both Ki-μ and Ki-σ1<1000 nM; ++++: Both Ki-μ and Ki-σ1<500 nM; conditions: combined class for Ki-σ1 (transfected HEK-293 membranes) and Ki-μ (transfected CHO-K1 cell membranes)
Experimental: Human σ1 Receptor Radioligand Assay
To investigate binding properties of test compounds to human σ1 receptor, transfected HEK-293 membranes and [^3H](+)-pentazocine (Perkin Elmer, NET-1056), as the radioligand, were used. The assay was carried out with 7 μg of membrane suspension, 5 nM of [^3H](+)-pentazocine in either absence or presence of either buffer or 10 μM Haloperidol for total and non-specific binding, respectively. Binding buffer contained Tris-HCl 50 mM at pH 8. Plates were incubated at 37° C. for 120 minutes. After the incubation period, the reaction mix was then transferred to MultiScreen HTS, FC plates (Millipore), filtered and plates were washed 3 times with ice-cold 10 mM TrisHCL (pH7.4). Filters were dried and counted at approximately 40% efficiency in a MicroBeta scintillation counter (Perkin-Elmer) using EcoScint liquid scintillation cocktail.
Preferably, transfected HEK-293 membranes (7 μg) were incubated with 5 nM of [^3H](+)-pentazocine in assay buffer containing Tris-HCl 50 mM at pH 8. NBS (non-specific binding) was measured by adding 10 μM Haloperidol. The binding of the test compound was measured at five different concentrations. Plates were incubated at 37° C. for 120 minutes. After the incubation period, the reaction mix was then transferred to MultiScreen HTS, FC plates (Millipore), filtered and plates were washed 3 times with ice-cold 10 mM TrisHCL (pH7.4). Filters were dried and counted at approximately 40% efficiency in a MicroBeta scintillation counter (Perkin-Elmer) using EcoScint liquid scintillation cocktail.
Human μ-Opioid Receptor Radioligand Assay
To investigate binding properties of test compounds to human μ-opioid receptor, transfected CHO-K1 cell membranes and [^3H]-DAMGO (Perkin Elmer, ES-542-C), as the radioligand, were used. The assay was carried out with 20 μg of membrane suspension, 1 nM of [^3H]-DAMGO in either absence or presence of either buffer or 10 μM Naloxone for total and non-specific binding, respectively. Binding buffer contained Tris-HCl 50 mM, MgCl2 5 mM at pH 7.4. Plates were incubated at 27° C. for 60 minutes. After the incubation period, the reaction mix was then transferred to MultiScreen HTS, FC plates (Millipore), filtered and plates were washed 3 times with ice-cold 10 mM TrisHCL (pH 7.4). Filters were dried and counted at approximately 40% efficiency in a MicroBeta scintillation counter (Perkin-Elmer) using EcoScint liquid scintillation cocktail.
Preferably, transfected CHO-K1 cell membranes (20 μg) were incubated with 1 nM of [^3H]-DAMGO in assay buffer containing Tris-HCl 50 mM, MgCl2 5 mM at pH 7.4. NBS (non-specific binding) was measured by adding 10 μM Naloxone. The binding of the test compound was measured at five different concentrations. Plates were incubated at 27° C. for 60 minutes. After the incubation period, the reaction mix was then transferred to MultiScreen HTS, FC plates (Millipore), filtered and plates were washed 3 times with ice-cold 10 mM TrisHCL (pH 7.4). Filters were dried and counted at approximately 40% efficiency in a MicroBeta scintillation counter (Perkin-Elmer) using EcoScint liquid scintillation cocktail.

Row | Structure (SMILES) | σ1 and μ binding
1 | CCC(=O)N(CC1(CCCN(C)CC(C)C)CCOCC1)c1cccc(C(F)(F)F)n1 [Example 8, N-((4-(3-(isobutyl(methyl)amino)propyl)tetrahydro-2H-pyran-4-yl)methyl)-N-(6-(trifluoromethyl)pyridin-2-yl)propionamide] | ++
2 | CCC(=O)N(CC1(N(C)CCNCC(C)C)CCOCC1)c1cccc(C(F)(F)F)n1 [Example 3, N-((4-((2-(Isobutylamino)ethyl)(methyl)amino)tetrahydro-2H-pyran-4-yl)methyl)-N-(6-(trifluoromethyl)pyridin-2-yl)propionamide] | ++
3 | CCC(=O)N(CC1(N(C)CCN(C)Cc2ccccc2)CCOCC1)c1cccc(C(F)(F)F)n1 [Example 2, N-((4-((2-(benzyl(methyl)amino)ethyl)(methyl)amino)tetrahydro-2H-pyran-4-yl)methyl)-N-(6-(trifluoromethyl)pyridin-2-yl)propionamide] | ++
4 | CCOCCN(C)CCN(C)C1(CN(C(=O)CC)c2cccc(C(F)(F)F)n2)CCOCC1 [Example 4, N-((4-((2-((2-Ethoxyethyl)(methyl)amino)ethyl)(methyl)amino)tetrahydro-2H-pyran-4-yl)methyl)-N-(6-(trifluoromethyl)pyridin-2-yl)propionamide] | ++
5 | CCC(=O)N(CC1(CCCNCC(C)C)CCOCC1)c1cccc(C(F)(F)F)n1 [Example 5, N-((4-(3-(Isobutylamino)propyl)tetrahydro-2H-pyran-4-yl)methyl)-N-(6-(trifluoromethyl)pyridin-2-yl)propionamide] | ++

same assay, conditions: combined class for Ki-σ1 (transfected HEK-293 membranes) and Ki-μ (transfected CHO-K1 cell membranes); read-out: σ1 and μ binding

Row | Structure (SMILES) | Ki [nM]
6 | CCC(=O)N(CC1(CCNCC(C)C)CCOCC1)c1cccc(C(F)(F)F)n1 [Example 7, N-((4-(2-(isobutylamino)ethyl)tetrahydro-2H-pyran-4-yl)methyl)-N-(6-(trifluoromethyl)pyridin-2-yl)propionamide] | ≥ 1000
7 | CCOCCNCCCC1(CN(C(=O)CC)c2cccc(C(F)(F)F)n2)CCOCC1 [Example 6, N-((4-(3-((2-ethoxyethyl)amino)propyl)tetrahydro-2H-pyran-4-yl)methyl)-N-(6-(trifluoromethyl)pyridin-2-yl)propionamide] | < 1000
8 | CCOCCN(C)CCCC1(CN(C(=O)CC)c2cccc(C(F)(F)F)n2)CCOCC1 [Example 9, N-((4-(3-((2-ethoxyethyl)(methyl)amino)propyl)tetrahydro-2H-pyran-4-yl)methyl)-N-(6-(trifluoromethyl)pyridin-2-yl)propionamide] | ≥ 1000
9 | CCC(=O)N(CC1(N(C)CCN(Cc2ccccc2)CC(C)C)CCOCC1)c1cccc(C(F)(F)F)n1 [Example 1, N-((4-((2-(Benzyl(isobutyl)amino)ethyl)(methyl)amino)tetrahydro-2H-pyran-4-yl)methyl)-N-(6-(trifluoromethyl)pyridin-2-yl)propionamide] | ≥ 1000
